# Data as given in US6372752B1 (priority 2000, dated 2002).
# Counter-ions that a name gives are not always drawn. Like-named read-outs stand apart in the source and are kept apart here.
# Tests used:
# InhA = InhA (Mycobacterium tuberculosis, UniProt P9WGR1); assay: InhA inhibition assay (NADH consumption, absorbance at 340); type: biochemical; conditions: for inhibition at 40 µM: 40 μM compound, read-out: Percentage Inhibition (@ 40 μM)
# [1] = tested on: Bacillus Calmet-Guerin (BCG), Pasteur strain, of Mycobacterium bovis; assay: microbe, parasite or virus in culture; type: cell-based; conditions: Mycobacterium tuberculosis variant bovis BCG
# h. Lung = assay: Cell Tox (h. Lung); conditions: h. Lung cells
# m. Embryo = assay: Cell Tox (m. Embryo); conditions: m. Embryo cells
# h. Kidney = assay: Cell Tox (h. Kidney); conditions: h. Kidney cells
# [2] = read-out: IC50's for BCG growth
# Chain of InhA (P9WGR1 whole entry, looked up): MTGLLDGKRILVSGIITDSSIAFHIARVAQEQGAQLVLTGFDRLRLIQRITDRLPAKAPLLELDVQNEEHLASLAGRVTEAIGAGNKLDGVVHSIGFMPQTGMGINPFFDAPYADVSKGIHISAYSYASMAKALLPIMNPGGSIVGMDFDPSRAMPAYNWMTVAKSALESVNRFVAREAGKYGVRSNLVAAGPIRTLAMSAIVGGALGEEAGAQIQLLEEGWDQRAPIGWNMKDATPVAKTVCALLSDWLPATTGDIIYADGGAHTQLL
smiles,measurement,setting,value
"CCCC(=O)C1(c2ccccc2)CCN(C(=O)c2ccc3[nH]ccc3c2)CC1 [Compound 4, 1-[1-(1H-Indole-5-carbonyl)-4-phenyl-piperidin-4-yl]-butan-1-one]",IC50,InhA,230 nM
same,IC50,[1]; read-out: BCG Growth IC-50,> 25000 nM
same,Cell Tox (h. Lung),h. Lung,33 to 50 µM
same,Cell Tox (m. Embryo),m. Embryo,46 to 50 µM
same,Cell Tox (h. Kidney),h. Kidney,23 to 48 µM
"O=C(Cc1ccccc1F)NCCc1ccc(Cl)cc1 [Compound 1, N-[2-(4-Chlorophenyl)-ethyl]-2-(2-fluoro-phenyl)acetamide]",inhibition at 40 µM,InhA; Table 2,82%
O=C(c1ccc2[nH]ccc2c1)N1CCN(C2c3ccccc3-c3ccc([N+](=O)[O-])cc32)CC1 (stereo not shown) [Compound 71],IC50,"InhA; Table 9, read-out: InhA IC-50",120 nM
same,IC50,[1]; read-out: BCG Growth IC-50,8300 nM
same,Cell Tox (h. Lung),h. Lung,37 µM
same,Cell Tox (m. Embryo),m. Embryo,23 µM
same,Cell Tox (h. Kidney),h. Kidney,28 µM
O=C(c1ccc2[nH]ccc2c1)N1CCN(c2cccc(C(F)(F)F)c2)CC1 [Compound 59],IC50,InhA,1890 nM
O=C(c1ccc2[nH]ccc2c1)N1CCN(C2c3ccccc3-c3cc([N+](=O)[O-])ccc32)CC1 (stereo not shown) [Compound 72],IC50,"InhA; Table 9, read-out: InhA IC-50",130 nM
same,IC50,[1]; read-out: BCG Growth IC-50,2800 nM
same,Cell Tox (h. Lung),h. Lung,34 µM
same,Cell Tox (m. Embryo),m. Embryo,23 µM
same,Cell Tox (h. Kidney),h. Kidney,29 µM
O=C(c1ccc2[nH]ccc2c1)N1CCN(c2ccc(Cl)cc2)CC1 [Compound 56],IC50,InhA,4200 nM
Cc1ccc(Cl)cc1N1CCN(C(=O)c2ccc3[nH]ccc3c2)CC1 [Compound 57],IC50,InhA,1040 nM
O=C(c1ccc2[nH]ccc2c1)N1CCN(C2c3cc(Br)ccc3-c3ccc(Br)cc32)CC1 [Compound 73],IC50,"InhA; Table 9, read-out: InhA IC-50",120 nM
same,IC50,[1]; read-out: BCG Growth IC-50,6200 nM
CO[C@H]1/C=C/O[C@@]2(C)Oc3c(C)c(O)c4c(O)c(c(/C=N/N5CCN(C)CC5)c(O)c4c3C2=O)NC(=O)/C(C)=C\C=C\[C@H](C)[C@H](O)[C@@H](C)[C@@H](O)[C@@H](C)[C@H](OC(C)=O)[C@@H]1C [rifampicin],IC50,[1]; read-out: BCG Growth IC-50,10 nM
same,IC50,[1]; [2],10 nM
"NNC(=O)c1ccncc1 [isoniazid, isonicotinic acid hydrazide]",IC50,[1]; read-out: BCG Growth IC-50,3000 nM
same,IC50,[1]; [2],3000 nM
"CCCCCCCCCCCCCCCC(=O)SCCNC(=O)CCNC(=O)[C@H](O)C(C)(C)COP(=O)(O)OP(=O)(O)OC[C@H]1O[C@@H](n2cnc3c(N)ncnc32)[C@H](O)[C@@H]1OP(=O)(O)O [palmitoyl-CoA, reference compound]",inhibition at 375 µM,"InhA; at 375 uM, read-out: inhibition by internal standard",~40%
"CC[C@@H](CO)NCCN[C@@H](CC)CO [ethambutol, ethambutol dihydrochloride]",IC50,[1]; read-out: BCG Growth IC-50,10000 nM
same,IC50,[1]; [2],10000 nM
O=C(c1ccc2[nH]ccc2c1)N1CCN(c2cccc(Cl)c2)CC1 [Compound 58],IC50,InhA,1210 nM
"O=C(c1ccc(Cl)cc1)C1CCN(C(=O)c2ccc3[nH]ccc3c2)CC1 [Compound 5, [4-(4-Chlorobenzoyl)-piperidin-1-yl]-(1H-indol-5-yl)-methanone]",inhibition at 40 µM,InhA; Table 6,97%
O=C(c1ccc2[nH]ccc2c1)N1CCN(C2c3ccccc3-c3ccccc32)CC1 [Compound 70],IC50,[1]; read-out: BCG Growth IC-50,8300 nM
same,Cell Tox (h. Lung),h. Lung,24 to 48 µM
same,Cell Tox (m. Embryo),m. Embryo,46 to 52 µM
same,Cell Tox (h. Kidney),h. Kidney,35 to 44 µM
